Test [1] has as its target T1, human GIP receptor (hGIPR) (Homo sapiens, UniProt P48546).
T1 construct: expressed in transfected cells; crude membranes
T1 sequence (P48546 22-466): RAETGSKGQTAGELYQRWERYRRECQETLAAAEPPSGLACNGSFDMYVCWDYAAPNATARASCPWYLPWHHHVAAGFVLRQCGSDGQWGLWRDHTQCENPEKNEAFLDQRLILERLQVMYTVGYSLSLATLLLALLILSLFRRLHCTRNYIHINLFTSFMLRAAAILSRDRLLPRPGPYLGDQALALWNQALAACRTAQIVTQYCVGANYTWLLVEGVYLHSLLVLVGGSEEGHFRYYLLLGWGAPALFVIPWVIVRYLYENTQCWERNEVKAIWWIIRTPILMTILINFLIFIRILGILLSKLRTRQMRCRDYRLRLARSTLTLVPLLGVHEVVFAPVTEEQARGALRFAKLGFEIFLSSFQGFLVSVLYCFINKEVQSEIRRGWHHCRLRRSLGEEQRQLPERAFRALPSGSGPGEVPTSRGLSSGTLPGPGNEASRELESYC
Briefly: [125I]-GIP binding, SPA with membranes of CHO cells expressing hGIPR.

For test [2], the target named is T2, hGCGR (Homo sapiens, UniProt P47871).
T2 construct: expressed in transfected cells
As to the kind of experiment: Functional cAMP formation (HTRF) in HEK-293 clonal cells expressing hGCGR, 0.1% bovine casein, without or with 1.0% human serum albumin. Type of test: cell-based. The procedure, abridged:
(§1)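 Cells were stimulated with peptide for 30 min at 37° C, then lysed in buffer carrying cAMP-d2 and anti-cAMP Eu3+-cryptate for a competitive HTRF read after at least 60 min at room temperature. The 665/620 nm ratio was converted to nM cAMP against a standard curve.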
A general note: Changes in cAMP serve as a functional read-out for many G protein-coupled receptors.

Test [3] addresses hGLP-1R (Homo sapiens, UniProt P43220). As to the kind of experiment: Functional cAMP formation (HTRF) in HEK-293 clonal cells expressing hGLP-1R, 0.1% bovine casein, without or with 1.0% human serum albumin. Type of test: cell-based. Details: expressed in transfected cells. To be noted: for EC50: cAMP, 0.1% bovine casein (no human serum albumin), geometric mean. In short, it runs like this: as §1

The target of test [4] is T3, human Gcg receptor (hGcgR) (Homo sapiens, UniProt P47871).
T3 construct: expressed in transfected cells; crude membranes
Briefly: [125I]-Glucagon binding, SPA with membranes of HEK293 cells expressing hGcgR.

Setting [5] is: human GIPR, geometric mean (SEM, n), read-out: Binding Affinity Ki, nM (SEM, n) hGIPR.
[6] abbreviates: 0.1% bovine casein and 1.0% human serum albumin, 37° C., geometric mean, read-out: hGCGR EC50, nM (SEM, n).
Where [7] appears, read: cAMP, incubated at 37° C., 0.1% bovine casein (no human serum albumin), geometric mean, read-out: hGCGR EC50, nM (SEM, n).
[8] abbreviates: HEK293, 0.1% bovine casein and 1.0% human serum albumin, 37° C., percent of maximal response to GLP-1(7-36)NH2, read-out: hGLP-1R Emax, % ± SEM.
[9] abbreviates: HEK293, percent of maximal response to GLP-1(7-36)NH2, 37° C., 0.1% bovine casein, arithmetic mean, read-out: hGLP-1R Emax, % ± SEM.
[10] abbreviates: incubated at 37° C., read-out: hGLP-1R EC50, nM (SEM, n).
[11] abbreviates: human GcgR, geometric mean (SEM, n), read-out: Binding Affinity Ki, nM (SEM, n) hGCGR.

SMILES strings stand for the structures. Read-outs that look alike come from different tables or passages of the source.

T2 sequence (P47871 26-477): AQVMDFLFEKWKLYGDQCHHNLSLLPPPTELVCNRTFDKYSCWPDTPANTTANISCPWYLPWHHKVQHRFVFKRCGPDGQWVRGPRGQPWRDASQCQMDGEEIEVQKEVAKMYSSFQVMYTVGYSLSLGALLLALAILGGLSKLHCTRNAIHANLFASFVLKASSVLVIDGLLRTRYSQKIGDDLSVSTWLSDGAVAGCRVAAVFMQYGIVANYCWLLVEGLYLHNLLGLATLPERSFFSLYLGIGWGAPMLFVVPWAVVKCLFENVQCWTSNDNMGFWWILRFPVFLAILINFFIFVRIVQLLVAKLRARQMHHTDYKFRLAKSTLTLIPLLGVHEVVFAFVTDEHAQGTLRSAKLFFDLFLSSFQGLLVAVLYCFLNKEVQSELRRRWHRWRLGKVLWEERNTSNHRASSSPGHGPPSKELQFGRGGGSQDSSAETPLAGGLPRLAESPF
T3 sequence (P47871 26-477): as above
Chain of hGLP-1R (P43220 24-463): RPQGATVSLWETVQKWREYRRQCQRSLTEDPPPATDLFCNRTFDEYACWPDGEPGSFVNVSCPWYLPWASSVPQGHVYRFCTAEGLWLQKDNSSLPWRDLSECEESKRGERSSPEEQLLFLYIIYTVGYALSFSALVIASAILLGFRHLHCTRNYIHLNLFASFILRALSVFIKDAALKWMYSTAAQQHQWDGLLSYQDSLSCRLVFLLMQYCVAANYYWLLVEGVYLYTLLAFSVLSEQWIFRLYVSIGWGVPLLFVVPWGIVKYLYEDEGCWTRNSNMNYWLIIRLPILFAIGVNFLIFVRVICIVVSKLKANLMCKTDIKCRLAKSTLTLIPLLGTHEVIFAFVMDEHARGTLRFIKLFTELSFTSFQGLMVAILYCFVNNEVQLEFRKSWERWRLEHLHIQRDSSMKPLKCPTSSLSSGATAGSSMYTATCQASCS

For the compound `CC[C@H](C)[C@H](NC(=O)[C@H](CC(C)C)NC(=O)[C@](C)(Cc1ccc(O)cc1)NC(=O)[C@H](CCCCNC(=O)CC[C@H](NC(=O)COCCOCCNC(=O)COCCOCCNC(=O)CC[C@H](NC(=O)CCCCCCCCCOc1ccc(C(=O)O)cc1)C(=O)O)C(=O)O)NC(=O)[C@@H](NC(=O)[C@H](Cc1ccccc1)NC(=O)[C@H](CCCN)NC(=O)C(C)(C)NC(=O)[C@H](CCC(N)=O)NC(=O)[C@H](C)NC(=O)[C@H](CCC(N)=O)NC(=O)[C@H](CCCN)NC(=O)[C@H](CC(=O)O)NC(=O)[C@H](CC(C)C)NC(=O)[C@](C)(CC(C)C)NC(=O)[C@@H](NC(=O)C(C)(C)NC(=O)[C@H](Cc1ccncc1)NC(=O)[C@H](CC(=O)O)NC(=O)[C@H](CO)NC(=O)[C@@H](NC(=O)[C@](C)(Cc1ccccc1F)NC(=O)[C@@H](NC(=O)CNC(=O)[C@H](CCC(=O)O)NC(=O)C(C)(C)NC(=O)[C@@H](N)Cc1ccc(O)cc1)[C@@H](C)O)[C@@H](C)O)[C@@H](C)CC)[C@@H](C)CC)C(=O)N[C@@H](CCCCNC(=O)CC[C@H](NC(=O)COCCOCCNC(=O)COCCOCCNC(=O)CC[C@H](NC(=O)CCCCCCCCCOc1ccc(C(=O)O)cc1)C(=O)O)C(=O)O)C(=O)NCC(=O)NCC(=O)N1CCC[C@H]1C(=O)N[C@@H](CO)C(=O)N[C@@H](CO)C(=O)NCC(=O)N[C@@H](C)C(=O)N1CCC[C@H]1C(=O)N1CCC[C@H]1C(=O)N1CCC[C@H]1C(=O)N[C@@H](CO)C(N)=O` [Example 483], the Ki (as a rule, the dissociation constant of the complex between target and ligand, obtained from inhibition or displacement) amounted to 0.0236 nM in test [1] and 151 nM in test [4]. Moreover, the EC50 (usually the concentration needed to bring the measured effect to its halfway point) in test [2] (hGCGR EC50, nM (SEM, n), cAMP, 37° C., 0.1% bovine casein (no human serum albumin), geometric mean) is > 9950 nM; in test [2] (hGCGR EC50, nM (SEM, n), cAMP, 37° C., 0.1% bovine casein and 1.0% human serum albumin, geometric mean (SEM, n)), > 9950 nM; in test [3] (hGLP-1R EC50, nM (SEM, n), 37° C.), 0.169 nM. The Emax (in general, the maximal effect, on the per cent scale that the assay sets) stood at 113% in test [3] (HEK293, read-out: hGLP-1R Emax, % ± SEM, cAMP, 37° C., 0.1% bovine casein and 1.0% human serum albumin, percent of maximal response to GLP-1(7-36)NH2); 118% in test [3] (HEK293, read-out: hGLP-1R Emax, % ± SEM, cAMP, 37° C., 0.1% bovine casein, percent of maximal response to GLP-1(7-36)NH2, arithmetic mean).
In the case of `CC[C@H](C)[C@H](NC(=O)[C@H](CC(C)C)NC(=O)[C@](C)(Cc1ccc(O)cc1)NC(=O)[C@@H](CCC(=O)O)NC(=O)[C@@H](NC(=O)[C@H](Cc1ccccc1)NC(=O)[C@H](CCC(=O)O)NC(=O)C(C)(C)NC(=O)[C@H](CCC(N)=O)NC(=O)[C@H](C)NC(=O)[C@H](CCCCNC(=O)COCCOCCNC(=O)COCCOCCNC(=O)CC[C@H](NC(=O)CCCCCCCCCCCCC(=O)O)C(=O)O)NC(=O)[C@H](CCCN)NC(=O)[C@H](CC(=O)O)NC(=O)[C@H](CC(C)C)NC(=O)[C@](C)(CC(C)C)NC(=O)[C@@H](NC(=O)C(C)(C)NC(=O)[C@@H](NC(=O)[C@H](CC(=O)O)NC(=O)[C@H](CO)NC(=O)[C@@H](NC(=O)[C@](C)(Cc1ccccc1F)NC(=O)[C@@H](NC(=O)CNC(=O)[C@H](CCC(=O)O)NC(=O)C(C)(C)NC(=O)[C@@H](N)Cc1ccc(O)cc1)[C@@H](C)O)[C@@H](C)O)C(C)C)[C@@H](C)CC)[C@@H](C)CC)C(=O)N[C@@H](CCC(=O)O)C(=O)NCC(=O)NCC(=O)N[C@@H](CCCCNC(=O)COCCOCCNC(=O)COCCOCCNC(=O)CC[C@H](NC(=O)CCCCCCCCCCCCC(=O)O)C(=O)O)C(=O)N[C@@H](CO)C(=O)N[C@@H](CO)C(=O)NCC(=O)N[C@@H](C)C(=O)N1CCC[C@H]1C(=O)N1CCC[C@H]1C(=O)N1CCC[C@H]1C(=O)N[C@@H](CO)C(N)=O` [Example 91], the Ki in test [1] (setting [5]) is 0.126 nM; in test [4] (setting [11]), > 955 nM. In addition, the EC50 is > 9950 nM in test [2] (setting [6]), > 9950 nM in test [2] (setting [7]) and 0.153 nM in test [3] (setting [10]). Also, the Emax came out at 89.8% in test [3] (setting [8]) and 94 ± 5.44% in test [3] (setting [9]).
With `CC[C@H](C)[C@H](NC(=O)[C@H](CC(C)C)NC(=O)[C@](C)(Cc1ccc(O)cc1)NC(=O)[C@@H](CCC(=O)O)NC(=O)[C@@H](NC(=O)[C@H](Cc1ccccc1)NC(=O)[C@H](CCC(=O)O)NC(=O)C(C)(C)NC(=O)[C@H](CCC(N)=O)NC(=O)[C@H](C)NC(=O)[C@H](CCCCNC(=O)COCCOCCNC(=O)COCCOCCNC(=O)CC[C@H](NC(=O)CCCCCCCCCCCCC(=O)O)C(=O)O)NC(=O)[C@H](CCCN)NC(=O)[C@H](CC(=O)O)NC(=O)[C@H](CC(C)C)NC(=O)[C@](C)(CC(C)C)NC(=O)[C@@H](NC(=O)[C@](C)(CO)NC(=O)[C@@H](NC(=O)[C@H](CC(=O)O)NC(=O)[C@H](CO)NC(=O)[C@@H](NC(=O)[C@](C)(Cc1ccccc1F)NC(=O)[C@@H](NC(=O)CNC(=O)[C@H](CCC(=O)O)NC(=O)C(C)(C)NC(=O)[C@@H](N)Cc1ccc(O)cc1)[C@@H](C)O)[C@@H](C)O)C(C)C)[C@@H](C)CC)[C@@H](C)CC)C(=O)N[C@@H](CCC(=O)O)C(=O)NCC(=O)NCC(=O)N[C@@H](CCCCNC(=O)COCCOCCNC(=O)COCCOCCNC(=O)CC[C@H](NC(=O)CCCCCCCCCCCCC(=O)O)C(=O)O)C(=O)N[C@@H](CO)C(=O)N[C@@H](CO)C(=O)NCC(=O)N[C@@H](C)C(=O)N1CCC[C@H]1C(=O)N1CCC[C@H]1C(=O)N1CCC[C@H]1C(=O)N[C@@H](CO)C(N)=O` [Example 212], the Ki in test [1] (setting [5]) was 0.161 nM; in test [4] (setting [11]), > 955 nM. The results for the EC50 in test [2] (setting [6]), in test [2] (setting [7]) and in test [3] (setting [10]) were > 9950 nM, > 9950 nM and 0.265 nM, respectively. Further, the Emax turned out to be 91% in test [3] (setting [8]) and 94.7% in test [3] (setting [9]).

The values are drawn from US20230265151A1, “GIP/GLP1 CO-AGONIST COMPOUNDS” (priority 2020, published 2023).
